Test results: ChEMBL document CHEMBL5608113, “Targeting of CAF-induced therapy resistance in CRC organoid-stroma co-cultures” (2024)

What was measured:
Assay type in all cases: functional, Homo sapiens
Settings in all cases: Homo sapiens, read-out: Cell Viability; for viability at 10 µM: Concentration 10 uM; for viability at 1 µM: Concentration 1 uM
Colon cancer organoid [1] = assay: Targeting of F14 CAF-induced therapy resistance in O14 CRC organoid-stroma co-culture. Cell viability is reported without Gefitinib.
Colon cancer organoid [2] = assay: Targeting of F14 CAF-induced therapy resistance in O14 CRC organoid-stroma co-culture. Cell viability is reported with Gefitinib.
Colon cancer organoid [3] = assay: Targeting of F14 CAF-induced therapy resistance in O23 CRC organoid-stroma co-culture. Cell viability is reported without Gefitinib.
Colon cancer organoid [4] = assay: Targeting of F14 CAF-induced therapy resistance in O23 CRC organoid-stroma co-culture. Cell viability is reported with Gefitinib.
Colon cancer organoid [5] = assay: Targeting of F14 CAF-induced therapy resistance in O23 CRC organoid-stroma co-culture. Cell viability is reported with SN-38.

| Compound | viability at 10 µM (Colon cancer organoid [1]) | viability at 10 µM (Colon cancer organoid [2]) | viability at 10 µM (Colon cancer organoid [3]) | viability at 10 µM (Colon cancer organoid [4]) | viability at 10 µM (Colon cancer organoid [5]) | viability at 1 µM (Colon cancer organoid [1]) | viability at 1 µM (Colon cancer organoid [2]) | viability at 1 µM (Colon cancer organoid [3]) | viability at 1 µM (Colon cancer organoid [4]) | viability at 1 µM (Colon cancer organoid [5]) |
| --- | --- | --- | --- | --- | --- | --- | --- | --- | --- | --- |
| Cn1cncc1[C@](O)(COc1ccc(C#N)cc1-c1ccc(OC(F)(F)F)cc1)c1ccc(C#N)cc1 | 47% | 18.5% | 75.6% | 40.9% | 76.2% | – | – | – | – | – |
| CN([C@@H]1CCc2c(CC(=O)O)c3cc(S(C)(=O)=O)ccc3n2C1)S(=O)(=O)c1ccc(F)cc1 [CRTH2-negative-control] | 98.2% | 37% | 76.2% | 24.9% | 54.8% | – | – | – | – | – |
| c1ccc2oc(-c3csc(C4CCN(Cc5nc6ncccc6[nH]5)CC4)n3)cc2c1 | 94.5% | 37.9% | 159% | 66% | 60.8% | – | – | – | – | – |
| O=c1nc(-c2ccccn2)sc2ccccc12 [BTZO-1] | 117% | 69.4% | 186% | 83.1% | 120% | – | – | – | – | – |
| Cc1sc2c(c1C)C(c1ccc(Cl)cc1)=N[C@@H](CC(=O)OC(C)(C)C)c1nnc(C)n1-2 | 25.8% | 6.17% | 65.2% | 35.6% | 53.4% | – | – | – | – | – |
| Cn1cc(-c2ccc3occ(-c4cccc(-c5ccncc5)c4)c3n2)cn1 | 112% | 56.4% | 114% | 87.7% | 65.6% | – | – | – | – | – |
| CCN(C(=O)CO)[C@H]1CN(/C(=N\C#N)Nc2cccc(OC(F)F)c2)N=C1c1ccc(Cl)c(Cl)c1 | 125% | 62.2% | 84% | 54.9% | 115% | – | – | – | – | – |
| Nc1nc(NCc2ccccc2)nc(-c2cccc(CO)c2)n1 [ZINC32547799] | 76% | 31.3% | 139% | 75.9% | 119% | – | – | – | – | – |
| Cc1cc(NC(=O)c2cccc(S(F)(F)(F)(F)F)c2)cc(-n2ccn3nc(-c4cccnc4)cc23)c1 [BAY-309] | 87.3% | 49.9% | 159% | 65% | 61.2% | – | – | – | – | – |
| Cc1ccc2nc(CNCCCOc3ccccc3)cc(O)c2c1 [UCSF924] | 105% | 36.6% | 119% | 48.9% | 63.9% | – | – | – | – | – |
| CO[C@@H](C)c1c(Nc2ccc([C@@H](N(C)C(=O)C3CCS(=O)(=O)CC3)C(F)(F)F)cc2)cnc2cc(Cl)nn12 [NVS-MALT1-C] | 84.5% | 34.3% | 119% | 70.3% | 82.8% | – | – | – | – | – |
| COc1nc2ccc([C@@](O)(c3ccccc3)C3CCN(C(C)=O)CC3)cc2c(Cl)c1Cc1ccc(-n2cccn2)cc1 [JNJ-54119936] | 146% | 45.8% | 106% | 64.3% | 62.6% | – | – | – | – | – |
| C[C@@H]1CN(c2cc(-c3nn(C)c4ccc(OC5(C)CC5)cc34)ncn2)C[C@H](C)O1 [MLi-2-NC] | 77.2% | 28.6% | 107% | 40.9% | 62.4% | – | – | – | – | – |
| Cc1nccc(COC(=O)N2C[C@@H]3[C@@H](CNC(=O)c4ccc5[nH]nnc5c4)[C@@H]3C2)n1 [BI 3017] | 7.82% | 7.21% | 161% | 38.3% | 76% | – | – | – | – | – |
| Cc1cc(C)cc([C@@H]2c3cc(C)ccc3NC(=O)CN2C(=O)c2ccc(Br)s2)c1 | 85.7% | 78.3% | 110% | 76% | 82.1% | – | – | – | – | – |
| CC(=O)Nc1c(C(C)=O)c(=O)n(C)c2nc(-c3ccc(Cl)cc3Cl)c(-c3ccc(Cl)cc3)cc12 [NAPHTHYRIDINONE] | 119% | 48.1% | 109% | 58.3% | 81.5% | – | – | – | – | – |
| CN(C(=O)c1ccccc1)c1cc(N(C)c2ccc3c(c2)CCc2ccc(C(=O)NCCN4CCOCC4)cc2C3=O)ccc1F [FM-743] | 142% | 36.5% | 141% | 83.7% | 59.3% | – | – | – | – | – |
| O=C(Nc1cccnn1)N1CC(C/C=C/c2cncc(Oc3ccc(C(F)(F)F)cn3)n2)C1 | 93.5% | 55.5% | 132% | 50.3% | 83.6% | – | – | – | – | – |
| C[C@@H](c1cccc(C#N)c1)n1cc(Cl)cc(C(N)=O)c1=N | 76.7% | 34.3% | 126% | 49.6% | 62.2% | – | – | – | – | – |
| CCOC(=O)c1cc2cc(-c3cc(C(=O)NCc4ccc(C(=O)O)cc4)nn3C)ccc2[nH]1 [BI 4394] | – | – | – | – | – | 95.7% | 59.3% | 148% | 77.1% | 83.8% |

| Compound | viability at 10 µM (Colon cancer organoid [1]) | viability at 10 µM (Colon cancer organoid [2]) | viability at 10 µM (Colon cancer organoid [3]) | viability at 10 µM (Colon cancer organoid [4]) | viability at 10 µM (Colon cancer organoid [5]) | viability at 1 µM (Colon cancer organoid [1]) | viability at 1 µM (Colon cancer organoid [2]) | viability at 1 µM (Colon cancer organoid [3]) | viability at 1 µM (Colon cancer organoid [4]) | viability at 1 µM (Colon cancer organoid [5]) |
| --- | --- | --- | --- | --- | --- | --- | --- | --- | --- | --- |
| COCCN1CCC(c2cc(CN(C)C(=O)c3cccc(Oc4ccccc4)c3)ccn2)CC1 | 67.2% | 65.6% | 46.6% | 27.5% | 34% | – | – | – | – | – |
| COc1cc(-c2cn(C)c(=O)c3cnccc23)c(OC)cc1CN(C)C | 95.6% | 53% | 55.4% | 31.8% | 44.2% | – | – | – | – | – |
| O=C(c1ccc(C(=O)N2CCC(N3CCCC3)CC2)c(Nc2ccccc2)c1)N1CCC(N2CCCC2)CC1 | 121% | 47.7% | 122% | 57.4% | 67.2% | – | – | – | – | – |
| Cc1cc(=O)n(C)c2cc(N3C(=O)CC[C@H](NS(=O)(=O)CC(C)C)[C@H]3c3ccc(Cl)cc3)ccc12 | 75.8% | 72.6% | 144% | 66% | 81.7% | – | – | – | – | – |
| CN1C(=O)[C@@H](N2CCc3cn(Cc4ccccc4)nc3C2=O)COc2ccccc21 [TP-030-1] | – | – | – | – | – | 125% | 40.8% | 138% | 56% | 66.7% |
| CN(C)C(=O)Cn1cc(-c2nc([C@@](C)(c3ccc(-c4cnc(N)nc4)cc3)C3CC3)no2)cn1 [BI 665915] | – | – | – | – | – | 102% | 56.8% | 181% | 79.9% | 85.2% |
| CC1=C(C#N)C(c2ccc3[nH]nc(C)c3c2)C(C#N)=C(C)N1 [BAY-474] | 90.1% | 7.78% | 115% | 22.9% | 81.4% | – | – | – | – | – |
| COc1cc(C(=O)N2CC[C@@H](O)[C@@H](N)C2)cc2nc(-c3cc4ccccc4n3CC3CC3)n(C)c12 | 107% | 58.8% | 112% | 73.5% | 75.5% | – | – | – | – | – |
| CN1CCN(c2cnc3c(C4CCN(C(=O)c5ccc(OC(F)(F)F)cc5N)CC4)ncnc3c2)CC1 [BAY-885] | 114% | 21.7% | 115% | 59.7% | 78% | – | – | – | – | – |
| COCCOc1nc(-c2ccc(Cl)nc2)nc2c1CN(C(=O)c1ncn3ccccc13)CC2 [THPP-1] | – | – | – | – | – | 100% | 37.5% | 141% | 47.7% | 58.4% |
| CC(C)(C#Cc1ccc(NC(=O)COc2ccccc2C(=O)c2ccccc2)c(Cl)c1)C(=O)O [BI 2439] | 159% | 36.7% | 160% | 98.3% | 82.7% | – | – | – | – | – |
| CSc1cccnc1N1CCN(Cc2nc3ccccc3[nH]2)CC1 [A-769] | 73.4% | 36.4% | 111% | 59% | 103% | – | – | – | – | – |
| O=C(O)c1ccc(-c2coc3ncc(-c4ccccc4)cc23)cc1Cl | 71.5% | 73.9% | 214% | 172% | 103% | – | – | – | – | – |
| N#Cc1ccc(Nc2ccc3[nH]c(=O)[nH]c3c2)c(Cl)c1 [TP-021n] | – | – | – | – | – | 115% | 59.2% | 161% | 47.2% | 63.2% |
| C[C@@H](c1cccc(CN)c1)n1cc(Cl)cc(C(N)=O)c1=N | 106% | 33.4% | 172% | 51% | 99.7% | – | – | – | – | – |
| CC(=O)N1CCC(c2ccc(C(=O)NC3=NCCN3)cc2C(F)(F)F)CC1 [BI 0054] | 46.7% | 17.4% | 120% | 54.5% | 74.4% | – | – | – | – | – |
| CCC(=O)N[C@H]1CC[C@@H](C(=O)N(C)c2ccc(-c3nc4ccccc4o3)cc2)C1 [BI 99179] | 48.5% | 44.8% | 168% | 82% | 124% | – | – | – | – | – |
| N#CN1CC[C@@H](C(=O)Nc2nc3c(s2)CN(C(=O)CN=[N+]=[N-])CC3)C1 [JYQ88] | 137% | 34.4% | 76.5% | 45.5% | 78.4% | – | – | – | – | – |
| CN(C)[C@@H]1CCN(c2cc(-c3ccccc3)nc3ccnn23)C1 [(R)-ZINC-3573] | 68.2% | 30.9% | 130% | 61.7% | 70.6% | – | – | – | – | – |
